Patent publication US20110306606A1, “NOVEL 2,6-SUBSTITUTED-3-NITROPYRIDINE DERIVATIVE, METHOD FOR PREPARING SAME, AND PHARMACEUTICAL COMPOSITION INCLUDING SAME” (priority 2008, published 2011)
Where two headings read alike, the source gives them in different places.

Key:
[1] = test system: formation of osteoclasts in co-culture of bone marrow cells and osteoblasts; experiment: Osteoclastogenesis inhibition via co-culture system (TRAP staining); type: cell-based, mice; conditions: 1 μM compound, 7 days co-culture, TRAP-positive multinucleated osteoclasts vs vehicle control; for inhibition at 1 µM: Mus musculus, Osteoclast, 168 h
Procedure: Osteoclastogenesis inhibitory effects of the compounds of the present invention were evaluated via a co-culture system (Reference: Endocrinology 137(1996), 2187 to 2190, E. Jimi et al.). A specific experimental method is as follows.
1) Preparation of Bone Marrow Cells and Osteoblasts
Femora and tibia were aseptically dissected from 6 to 8-week-old male ddY mice to harvest bone marrow cells by a conventional method using a syringe. In brief, tissues were removed from the dissected bone, the bone ends were cut off with scissors, and the bone marrow was isolated by pushing a medium-containing syringe (23G) against the one end of the cut bone. The isolated bone marrow was subjected to repeated piston movement of a syringe such that single cells were obtained (Reference: Endocrinology 123(1988), 2600 to 2602, Takahashi et al.). After removal of red blood cells within the bone marrow, the bone marrow cells recovered by centrifugation were placed in an α-MEM supplemented with 10% fetal bovine serum (FBS), followed by counting of nucleated cells and then were immediately used for a co-culture system.
2) Osteoclastogenesis Inhibition Experiment Via Co-Culture System
As the medium used for a co-culture system, a differentiation medium with the addition of differentiation factors 1α,25-dihydroxyvitamin D3 (10^−8M) and dexamethasone (10^−8M) to a-MEM supplemented with 10% FBS was used for the induction of osteoclastogenesis. First, the compounds dissolved in dimethyl sulfoxide (DMSO) at a concentration of 1 mM were diluted to 2 μM using the above-mentioned differentiation medium. As a vehicle control group, 0.2% (v/v) DMSO was added to the medium. 100 μL/well of each medium was added to 96-well plates. In addition, the above prepared bone marrow cells and osteoblasts were plated onto 96-well plates at a density of 1×10^5 cells/50 μL/well and 3×10^3 cells/50 μL/well, respectively. The total volume/well was 200 μL and the final compound concentration was 1 μM. The control group was 0.1% DMSO. The cells were cultured with exchange of the culture media with fresh media containing differentiation factors and test materials at an interval of 2 to 3 days.
7 days after culturing of cells, the formation of multinucleated osteoclasts was confirmed by microscopic examination, the medium was removed from the wells and then the cells were fixed in a 10% phosphate-buffered formalin solution. The degree of formation of mature osteoclasts was measured taking advantage of the characteristics of osteoclasts showing a positive reaction to a tartrate-resistant acid phosphatase (TRAP) staining solution. The TRAP staining solution was prepared in a manner such that naphthol AS-MS phosphate as a substrate and a coloring agent (Fast Red Violet LB salt) were dissolved in N,N-dimethylformamide, and a 0.1N NaHCO3 buffer solution containing 50 mM of tartaric acid was added thereto. Among the TRAP-positive cells under a light microscope, multinucleated osteoclasts having 6 to 7 nuclei were regarded as mature osteoclasts.
The degree of inhibition of osteoclastogenesis was calculated according to the following equation 1. The results are summarized in Table 27 below (Experiments were carried out for 4 wells/experimental group (n=4), and the results are given in terms of mean±standard deviation)
Inhibition of osteoclastogenesis(%)=(1−numbers of osteoclasts observed in experimental group/numbers of osteoclasts observed in vehicle control group)×100(%) [Equation 1]

[2] = test system: Osteoblasts (Calvarial cells); conditions: ICR, mouse, 72 h, 1 μM
[3] = test system: Osteoblasts (Calvarial cells); experiment: Cytotoxicity test (MTT); conditions: 1 μM compound, 72 hours, in comparison with vehicle control

Cc1ccc(Nc2nc(-n3ccnc3C(C)C)ccc2[N+](=O)[O-])cc1 [Compound 7, 2-(4-methylphenylamino)-6-[(2-isopropyl)imidazol-1-yl]-3-nitropyridine]
inhibition at 1 µM [1]: 100% | Cell viability (%) Calvarial cell [2]: 103%

Cc1ccc(Nc2nc(NCCc3cccnc3)ccc2[N+](=O)[O-])cc1 [Compound 10, 2-(4-methylphenylamino)-6-[2-(3-pyridyl)ethylamino]-3-nitropyridine]
inhibition at 1 µM [1]: 64% | Cell viability (%) Calvarial cell [2]: 116%

Cc1ccc(Nc2nc(N3CCNCC3)ccc2[N+](=O)[O-])cc1 [Compound 12, 2-(4-methylphenylamino)-6-(piperazin-1-yl)-3-nitropyridine]
inhibition at 1 µM [1]: 63% | Cell viability (%) Calvarial cell [2]: 103%

COc1ccc(Nc2nc(N3CCC(N)CC3)ccc2[N+](=O)[O-])cc1 [Compound 28, 2-(4-methoxyphenylamino)-6-(4-aminopiperidino)-3-nitropyridine]
inhibition at 1 µM [1]: 88% | Cell viability (%) Calvarial cell [2]: 89%

CC(C)(C)c1ccc(Nc2nc(N3CCNCC3)ccc2[N+](=O)[O-])cc1 [Compound 42, 2-[4-(t-butyl)phenylamino]-6-(piperazin-1-yl)-3-nitropyridine]
inhibition at 1 µM [1]: 96% | Cell viability (%) Calvarial cell [2]: 103%

CSc1ccc(Nc2nc(NCCCn3ccnc3)ccc2[N+](=O)[O-])cc1 [Compound 55, 2-[4-(methylsulfanyl)phenylamino]-6-[(3-imidazol-1-yl)propylamino]-3-nitropyridine]
inhibition at 1 µM [1]: 98% | Cell viability (%) Calvarial cell [2]: 105%

CN(CC1OCCO1)c1ccc([N+](=O)[O-])c(Nc2ccc(-n3ccnc3)cc2)n1 [Compound 89]
Osteoclastogenesis inhibition (%) 1 μM [1]: 73% | Cell viability (%) Calvarial cell [3]: 89%

CCN(CC)c1ccc(Nc2nc(NCC(C)C)ccc2[N+](=O)[O-])cc1F [Compound 177, 2-[(3-fluoro-4-diethylamino)phenylamino]-6-(isobutylamino)-3-nitropyridine]
Osteoclastogenesis inhibition (%) 1 μM [1]: 61% | Cell viability (%) Calvarial cell [3]: 107%

O=[N+]([O-])c1ccc(NCc2cccnc2)nc1Nc1ccc(N2CCOCC2)c(F)c1 [Compound 197, 2-[(3-fluoro-4-morpholino)phenylamino]-6-[(3-pyridyl)methylamino]-3-nitropyridine]
Osteoclastogenesis inhibition (%) 1 μM [1]: 81% | Cell viability (%) Calvarial cell [3]: 95%

O=[N+]([O-])c1ccc(NCc2ccncc2)nc1Nc1ccc(N2CCOCC2)c(F)c1 [Compound 198, 2-[(3-fluoro-4-morpholino)phenylamino]-6-[(4-pyridyl)methylamino]-3-nitropyridine]
Osteoclastogenesis inhibition (%) 1 μM [1]: 84% | Cell viability (%) Calvarial cell [3]: 96%

NC1CCN(c2ccc([N+](=O)[O-])c(Nc3ccc(N4CCOCC4)c(F)c3)n2)CC1 [Compound 202, 2-[(3-fluoro-4-morpholino)phenylamino]-6-(4-aminopiperidino)-3-nitropyridine]
Osteoclastogenesis inhibition (%) 1 μM [1]: 90% | Cell viability (%) Calvarial cell [3]: 96%

O=[N+]([O-])c1ccc(NCc2cccnc2)nc1Nc1ccc(N2CCSCC2)c(F)c1 [Compound 209, 2-[(3-fluoro-4-thiomorpholino)phenylamino]-6-[(3-pyridyl)methylamino]-3-nitropyridine]
Osteoclastogenesis inhibition (%) 1 μM [1]: 85% | Cell viability (%) Calvarial cell [3]: 99%

O=[N+]([O-])c1ccc(NCc2ccncc2)nc1Nc1ccc(N2CCSCC2)c(F)c1 [Compound 210, 2-[(3-fluoro-4-thiomorpholino)phenylamino]-6-[(4-pyridyl)methylamino]-3-nitropyridine]
Osteoclastogenesis inhibition (%) 1 μM [1]: 70% | Cell viability (%) Calvarial cell [3]: 105%

CN1CCN(c2ccc([N+](=O)[O-])c(Nc3ccc(N4CCSCC4)c(F)c3)n2)CC1 [Compound 212, 2-[(3-fluoro-4-thiomorpholino)phenylamino]-6-(4-methylpiperazin-1-yl)-3-nitropyridine]
Osteoclastogenesis inhibition (%) 1 μM [1]: 85% | Cell viability (%) Calvarial cell [3]: 100%

NC1CCN(c2ccc([N+](=O)[O-])c(Nc3ccc(N4CCSCC4)c(F)c3)n2)CC1 [Compound 214, 2-[(3-fluoro-4-thiomorpholino)phenylamino]-6-(4-aminopiperidino)-3-nitropyridine]
Osteoclastogenesis inhibition (%) 1 μM [1]: 98% | Cell viability (%) Calvarial cell [3]: 103%

O=[N+]([O-])c1ccc(NCc2cccnc2)nc1Nc1ccc(N2CCNCC2)c(F)c1 [Compound 220, 2-[(3-fluoro-4-piperazino)phenylamino]-6-[(3-pyridyl)methylamino]-3-nitropyridine]
Osteoclastogenesis inhibition (%) 1 μM [1]: 82% | Cell viability (%) Calvarial cell [3]: 93%

O=[N+]([O-])c1ccc(NCc2ccncc2)nc1Nc1ccc(N2CCNCC2)c(F)c1 [Compound 221, 2-[(3-fluoro-4-piperazino)phenylamino]-6-[(4-pyridyl)methylamino]-3-nitropyridine]
Osteoclastogenesis inhibition (%) 1 μM [1]: 89% | Cell viability (%) Calvarial cell [3]: 91%

O=[N+]([O-])c1ccc(N2CCC(O)CC2)nc1Nc1ccc(N2CCCCC2)c(F)c1 [Compound 226, 2-[(3-fluoro-4-piperidino)phenylamino]-6-(4-hydroxypiperidino)-3-nitropyridine]
Osteoclastogenesis inhibition (%) 1 μM [1]: 66% | Cell viability (%) Calvarial cell [3]: 104%

CC(C)c1nccn1-c1ccc([N+](=O)[O-])c(Nc2ccc(N3CCCCC3)c(F)c2)n1 [Compound 228, 2-[(3-fluoro-4-piperidino)phenylamino]-6-[(2-isopropyl)imidazol-1-yl]-3-nitropyridine]
Osteoclastogenesis inhibition (%) 1 μM [1]: 73% | Cell viability (%) Calvarial cell [3]: 99%

CN1CCN(c2ccc([N+](=O)[O-])c(Nc3ccc(N4CCCCC4)c(F)c3)n2)CC1 [Compound 232, 2-[(3-fluoro-4-piperidino)phenylamino]-6-(4-methylpiperazin-1-yl)-3-nitropyridine]
Osteoclastogenesis inhibition (%) 1 μM [1]: 86% | Cell viability (%) Calvarial cell [3]: 100%

O=[N+]([O-])c1ccc(N2CCNCC2)nc1Nc1ccc(N2CCCCC2)c(F)c1 [Compound 233, 2-[(3-fluoro-4-piperidino)phenylamino]-6-(piperazin-1-yl)-3-nitropyridine]
Osteoclastogenesis inhibition (%) 1 μM [1]: 96% | Cell viability (%) Calvarial cell [3]: 102%

NC1CCN(c2ccc([N+](=O)[O-])c(Nc3ccc(N4CCCCC4)c(F)c3)n2)CC1 [Compound 234, 2-[(3-fluoro-4-piperidino)phenylamino]-6-(4-aminopiperidino)-3-nitropyridine]
Osteoclastogenesis inhibition (%) 1 μM [1]: 100% | Cell viability (%) Calvarial cell [3]: 94%

CC(C)CNc1ccc([N+](=O)[O-])c(Nc2ccc(N3CCC(O)CC3)c(F)c2)n1 [Compound 238, 2-{[3-fluoro-4-(4-hydroxypiperidino)]phenylamino}-6-(isobutylamino)-3-nitropyridine]
Osteoclastogenesis inhibition (%) 1 μM [1]: 75% | Cell viability (%) Calvarial cell [3]: 106%

O=[N+]([O-])c1ccc(NCc2cccnc2)nc1Nc1ccc(N2CCC(O)CC2)c(F)c1 [Compound 241, 2-{[3-fluoro-4-(4-hydroxypiperidino)]phenylamino}-6-[(3-pyridyl)methylamino]-3-nitropyridine]
Osteoclastogenesis inhibition (%) 1 μM [1]: 87% | Cell viability (%) Calvarial cell [3]: 100%

O=[N+]([O-])c1ccc(NCc2ccncc2)nc1Nc1ccc(N2CCC(O)CC2)c(F)c1 [Compound 242, 2-{[3-fluoro-4-(4-hydroxypiperidino)]phenylamino}-6-[(4-pyridyl)methylamino]-3-nitropyridine]
Osteoclastogenesis inhibition (%) 1 μM [1]: 93% | Cell viability (%) Calvarial cell [3]: 114%

NC1CCN(c2ccc([N+](=O)[O-])c(Nc3ccc(N4CCC(O)CC4)c(F)c3)n2)CC1 [Compound 246, 2-{[3-fluoro-4-(4-hydroxypiperidino)]phenylamino}-6-(4-aminopiperidino)-3-nitropyridine]
Osteoclastogenesis inhibition (%) 1 μM [1]: 80% | Cell viability (%) Calvarial cell [3]: 105%
